Experimental findings from patent US5677282A (Proscript, Inc., priority 1995, dated 1997) are described below.

What all share (format): biochemical
One assay has as its target stromelysin (Homo sapiens, UniProt P08254). The assay is described as follows: Assay of stromelysin inhibition activity (fluorogenic coumarin peptide substrate). Particulars: trypsin-activated stromelysin 2 nM, H-150 buffer pH 7.4, room temperature; read-out: Ki(app). The protocol:
Stromelysin was first activated with trypsin. This was done by preparing a reaction mixture in H-150 (H-150 consists of 10 mM CaCl2, 150 mM NaCl and 100 mM HEPES at pH 7.4) containing a final concentration of 25 μg/mL trypsin and 2.2 μM of stromelysin (Marcy et al., Biochemistry,30:6476 (1991); Koklitis et al., Biochem. J., 376:217 (1991). The reaction was incubated for 30 minutes at 37° C. and then quenched by adding trypsin inhibitor agarose to the reaction mixture at a 20 fold excess with respect to trypsin.
The reaction mixture was centrifuged at 14,000 rpm (16,000 ×g) for 30 minutes using an Eppendorf Centrifuge 5415C. The supernant, which contains activated stromelysin, was concentrated with a Centricon 10 (5000 g, 1 hour). A sample was analyzed by Bradford total protein assay and 12% SDS polyacrylamide gel electrophoresis.
All steps of the stromelysin inhibition assay were performed at room temperature. Assay solutions were prepared for each inhibitor tested. Activated stromelysin was added to a stirred covelte to a final concentration of 2 nM in 2 mL of H-150 buffer. 4 μL 5 mM coumarin peptide substrate was dissolved in DMSO and the initial rate of hydrolysis was measured for 100-200 seconds.
Substrate hydrolysis was assessed by fluorescence using a slit width of 10:10, excitation at 328 nm and emission at 393 nm. Ki was calculated based on the assumption of simple competitive inhibition and a substrate concentration much less than Km. 2 μL of 10 mM inhibitor in DMSO was added and the reduction in hydrolysis rate measured. The addition of 2 μL of inhibitor was continued until a 30-70% inhibition was observed.

Assay [1] has as its target human neutrophil collagenase (Homo sapiens, UniProt P22894). Put plainly: Assay of human neutrophil collagenase inhibition activity. As to conditions: human neutrophil collagenase 2 nM, H-150 buffer pH 7.4; read-out: Ki(app). Here is the method:
H-150 buffer, pH 7.4, was prepared by adding CaCl2 H2 O (1.47 grams), NaCl (8.77 grams) and N-[2-hydroxyethyl]piperazine-N'-[2-ethanesulfonic acid] (23.83 grams) to distilled and deionized water and then bringing the final volume of the solution to 1 liter.
A reaction mixture with a final volume of 2.0 mL was prepared from H-150 buffer, human neutrophil collagenase (Schnierer, et al., Blochem. Biophys. Res. Comm., 191:319 (1993); Knight et al., Federation of Europena Biochemical Societies 296:263 (1992)) (2 nM). Coumarin peptide substrate (4 μL of a 5 mM solution in dimethyl sulfoxide) was added to the reaction mixture. The rate of hydrolysis was determined for about 100-200 seconds by measuring the fluorescence of the reaction at ex328 nanometers and […] using a Hitachi F-2000 Fluorescence Spectrophotometer.
(§1) 2 μL of a 10 mM inhibitor stock solution (in dimethyl sulfoxide) is added and the reduction in the rate of hydrolysis is determined. Additional 2 μL aliquots of the stock inhibitor solution is added until a 30% to 70% inhibition is observed. Ki is calculated on the assumption of simple competitive inhibition and that the substrate concentration is much less than Km.

A further assay addresses 92 kD gelatinase (Homo sapiens, UniProt P14780). Put plainly: Assay of 92 KD gelatinase inhibition activity. As to conditions: 92KD gelatinase 25 pM, H-150 buffer pH 7.4; read-out: Ki(app). The protocol:
H-150 buffer, pH 7.4, was prepared by CaCl2 H2 O (1.47 grams), NaCl (8.77 grams) and N-[2-hydroxyethyl]piperazine-N'-[2-ethanesulfonic acid](23.83 grams) to distilled and deionized water and then bring the final volume of the solution to 1 liter. A reaction mixture having a final volume of 500 μL was prepared with H-150 buffer, 200 μgrams of Pro-92KD gelatinase (Strongin et al., J. Biol. Chem., 268:14033 (1993); Goldberg, et al., J. Biol. Chem., 267:4583 (1992); Okada et al., J. Biol. Chem. 267:21712 (1992)), p-aminophenyl mercuric acetate (Sigma Chemical Co., St. Louis, Mo.) (1 mM) and Brij (dodexylpoly(oxyethyleneglycolether))(0,008% w/v). The reaction mixture wsa then incubated for 24 hours at 37° C.
The reaction mixture was applied to a NAP-5 column (G-25 SEPHADEX™, Pharmacia). Fractions containing 72KD gelatinase were identified using 12% polyacrylamide gel electrophoresis and concentrated to about 100-200 μliters by centrifigation (5000 g, 1 hour).
A solution containing H-150 buffer (2.0 mL), 92KD gelatinase (25 pM) and ethylphenolpoly(ethylene-glycolether)n (Boerhringer Mannheim) (4.0 μM) was prepared in a stirred cuvette. Coumarin peptide substrate (4 μL of a 5 mM solution in dimethyl sulfoxide) was added to the reaction mixture. The rate of hydrolysis was determined for about 100-200 seconds by measuring the fluorescence of the reaction at ex328 nanometers and […] using a Hitachi F-2000 Fluorescence Spectrophotometer.
as §1

A further assay has as its target T1, 72 kD gelatinase (Homo sapiens, UniProt P08253).
T1 sequence (P08253 110-660): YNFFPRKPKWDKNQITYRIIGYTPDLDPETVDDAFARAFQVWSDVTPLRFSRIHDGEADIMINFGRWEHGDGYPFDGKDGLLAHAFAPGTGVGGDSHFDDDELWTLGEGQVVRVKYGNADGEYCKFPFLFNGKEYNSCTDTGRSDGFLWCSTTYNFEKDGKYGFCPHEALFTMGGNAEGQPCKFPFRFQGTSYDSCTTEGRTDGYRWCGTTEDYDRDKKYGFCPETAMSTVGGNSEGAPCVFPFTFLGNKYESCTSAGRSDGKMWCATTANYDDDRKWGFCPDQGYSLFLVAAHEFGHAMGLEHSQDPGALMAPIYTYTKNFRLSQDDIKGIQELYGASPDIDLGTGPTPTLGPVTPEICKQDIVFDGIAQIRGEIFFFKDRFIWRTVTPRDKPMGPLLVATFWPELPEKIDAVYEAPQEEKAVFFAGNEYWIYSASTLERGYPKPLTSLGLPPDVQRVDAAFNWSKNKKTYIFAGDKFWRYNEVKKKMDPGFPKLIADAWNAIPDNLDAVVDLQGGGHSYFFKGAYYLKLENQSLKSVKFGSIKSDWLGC
The assay is described as follows: Assay of 72 KD gelatinase inhibition activity. As to conditions: 72KD gelatinase 180 pM, H-150 buffer pH 7.4; read-out: Ki(app). The protocol: H-150 buffer, pH 7.4, was prepared by CaCl2 H2O (1.47 grams), NaCl (8.77 grams) and N-[2 -hydroxyethyl]piperazine-N'-[2-ethanesulfonic acid](23.83 grams) to distilled and deionized water and then bring the final volume of the solution to 1 liter. An reaction mixture having a final volume of 250 μL was prepared with H-150 buffer, 40 μgrams of Pro-72KD gelatinase (Strongin, et al., J. Biol. Chem. 268:14033 (1993); Goldberg, et al., J. Biol. Chem., 267:4583 (1992); Kleiner, et al., Biochemistry 32:1583 (1993)) and p-aminophenyl mercuric acetate (Sigma Chemical Co., St. Louis, Mo.) (1 mM). The reaction mixture was then incubated for 3 hours at 25° C.
The reaction mixture was applied to a NAP-5 column (G-25 SEPHADEX™, Pharmacia). Fractions containing […] were identified using 12% SDS polyacrylamide gel electrphoresis and concentrated to about 100-200 μliters by centrifigation (5000 g, 15 minutes).
A solution containing H-150 buffer (2.0 mL), 72KD gelatinase (180 pM) and ethylphenolpoly(ethylene-glycolether)n (Boerhringer Mannheim) (1.3 μM) was prepared in a stirred cuvette. Coumarin peptide substrate (2 μL of a 1 mM solution in dimethyl sulfoxide) was added to the reaction mixture. The rate of hydrolysis was determined for about 100-200 seconds by measuring the fluorescence of the reaction at ex328 nanometers and […] using a Hitachi F-2000 Fluorescence Spectrophotometer.
as §1

pKi: −log10 of the molar value. Where a SMILES comes first, the peptide text is derived from it. [ ]: non-standard residue; d: D form. The star is where a group is joined. Phg = N[CH](C(=O)O)c1ccccc1; Cbz = O=C(OCc1ccccc1)*; X1 = S=c1[nH]nc(N*)s1; Bn = c1ccc(C*)cc1

Sequence of stromelysin (P08254 100-477): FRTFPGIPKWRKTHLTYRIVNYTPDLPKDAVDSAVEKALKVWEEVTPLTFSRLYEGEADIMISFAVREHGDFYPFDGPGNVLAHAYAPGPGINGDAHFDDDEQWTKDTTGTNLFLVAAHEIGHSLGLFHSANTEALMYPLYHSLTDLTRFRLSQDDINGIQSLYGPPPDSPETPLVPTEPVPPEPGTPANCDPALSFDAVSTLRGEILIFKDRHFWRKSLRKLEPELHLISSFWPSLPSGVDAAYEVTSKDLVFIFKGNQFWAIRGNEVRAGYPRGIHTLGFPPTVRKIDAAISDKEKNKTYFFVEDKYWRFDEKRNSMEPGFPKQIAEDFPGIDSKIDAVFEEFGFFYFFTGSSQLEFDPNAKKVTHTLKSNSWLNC
Sequence of human neutrophil collagenase (P22894 101-467): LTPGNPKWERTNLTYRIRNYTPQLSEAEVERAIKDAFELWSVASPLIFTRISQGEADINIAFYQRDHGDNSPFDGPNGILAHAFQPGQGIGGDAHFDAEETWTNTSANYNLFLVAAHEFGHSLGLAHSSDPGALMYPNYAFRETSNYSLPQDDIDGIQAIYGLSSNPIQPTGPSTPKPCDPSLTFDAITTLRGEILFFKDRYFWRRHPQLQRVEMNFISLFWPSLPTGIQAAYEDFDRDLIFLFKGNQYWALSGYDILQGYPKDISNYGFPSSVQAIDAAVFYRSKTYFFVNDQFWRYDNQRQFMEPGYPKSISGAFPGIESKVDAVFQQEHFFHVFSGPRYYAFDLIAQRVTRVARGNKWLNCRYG
Sequence of 92 kD gelatinase (P14780 107-707): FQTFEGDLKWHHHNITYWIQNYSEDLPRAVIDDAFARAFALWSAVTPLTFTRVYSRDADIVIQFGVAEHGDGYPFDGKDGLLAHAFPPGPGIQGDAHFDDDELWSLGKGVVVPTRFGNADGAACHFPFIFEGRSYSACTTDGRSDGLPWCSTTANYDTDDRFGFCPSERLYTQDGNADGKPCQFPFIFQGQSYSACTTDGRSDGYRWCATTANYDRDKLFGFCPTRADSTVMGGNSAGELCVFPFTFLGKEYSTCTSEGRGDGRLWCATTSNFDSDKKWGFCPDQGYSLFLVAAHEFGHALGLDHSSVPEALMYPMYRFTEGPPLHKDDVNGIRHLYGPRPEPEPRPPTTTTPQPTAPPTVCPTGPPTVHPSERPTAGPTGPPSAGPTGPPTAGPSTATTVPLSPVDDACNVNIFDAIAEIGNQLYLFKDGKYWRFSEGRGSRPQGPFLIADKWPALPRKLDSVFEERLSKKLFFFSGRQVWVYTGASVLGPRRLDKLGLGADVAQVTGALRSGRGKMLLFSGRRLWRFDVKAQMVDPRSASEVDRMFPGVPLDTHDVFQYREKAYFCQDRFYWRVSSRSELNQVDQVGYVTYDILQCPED

For the molecule `CC(C)[C@H](NC(=O)[C@H](Cc1ccccc1)NC(=O)c1ccc(Oc2ccccc2)cc1)C(=O)Nc1n[nH]c(=S)s1` [5-(N-(4-phenoxy)benzoyl-phenylalanyl-valylamino)-1,3,4-thiadiazole-2-thione], the pKi (in general, the Ki on a negative log10 scale, so that one unit is a factor of ten) on stromelysin was 7.00; in assay [1], 8.78. Turning to `O=C(N[C@@H](Cc1ccccc1)C(=O)Nc1n[nH]c(=S)s1)OCC1c2ccccc2-c2ccccc21` [5-(N-(9-fluorenylmethoxycarbonyl)-phenylalanylamino)-1,3,4-thiadiazole-2-thione], at 92 kD gelatinase, the pKi was 9.64. As for `O=C(N[C@@H](Cc1ccccc1)C(=O)N[C@@H](CCc1ccccc1)C(=O)Nc1n[nH]c(=S)s1)OCc1ccccc1` [5-(N-benzyloxycarbonyl-phenylalanyl-homophenylalanylamino)-1,3,4-thiadiazole-2-thione], the pKi in assay [1] is 8.54; on 72 kD gelatinase, 9.02. On to `CSCC[C@H](NC(=O)[C@H](Cc1ccccc1)NC(=O)OCc1ccccc1)C(=O)N[C@@H](Cc1ccc(OCc2ccccc2)cc1)C(=O)N[C@H](C(=O)Nc1n[nH]c(=S)s1)c1ccccc1`, for which, at 72 kD gelatinase, the pKi is 9.70.

With `C[C@H](NC(=O)[C@H](Cc1ccccc1)NC(=O)OCc1ccccc1)C(=O)Nc1n[nH]c(=S)s1` [5-(N-benzyloxycarbonyl-phenylalanyl-alanylamino)-1,3,4-thiadiazole-2-thione], the results for the pKi on stromelysin and on 92 kD gelatinase were 5.85 and 8.44, respectively.

For the molecule `O=C(CNC(=O)OCc1ccccc1)NC(Cc1ccc(O)cc1)C(=O)NC(Cc1ccc(OCc2ccccc2)cc1)C(=O)NC(C(=O)Nc1n[nH]c(=S)s1)c1ccccc1` (stereo not shown) [5-(N-benzyloxycarbonyl-glycyl-tyrosyl-(O-benzyl)tyrosyl)-phenylglycylamino)-1,3,4-thiadiazole-2-thione] (Cbz-GYY(Bn)[Phg]-X1; configuration not given here), the pKi is 6.96 on stromelysin and 10.14 on 72 kD gelatinase. As for `CC(C)C[C@H](NC(=O)[C@H](Cc1ccccc1)NC(=O)OCc1ccccc1)C(=O)N[C@@H](Cc1c[nH]c2ccccc12)C(=O)Nc1n[nH]c(=S)s1` [5-(N-benzyloxycarbonyl-phenylalanyl-leucyl-tryptonylamino)-1,3,4-thiadiazole-2-thione], the pKi was 6.61 on stromelysin and 8.84 in assay [1]. `CC(C)[C@H](NC(=O)[C@H](Cc1ccccc1)NC(=O)CCc1ccccc1)C(=O)Nc1n[nH]c(=S)s1` [5-(N-hydrocinamoyl-phenylalanyl-valylamino-1,3,4-thiadiazole-2-thione]: the pKi on stromelysin is 6.57. Same read-out and setting: the same measure for `CC(C)C[C@H](NC(=O)OC(C)(C)C)C(=O)Nc1n[nH]c(=S)s1` [5-(N-t-butoxycarbonyl-leucylamino)-1,3,4-thiadiazole-2-thione]: 4.99.

As to `CC(C)[C@H](NC(=O)[C@H](Cc1ccc(F)cc1)NC(=O)OCc1ccccc1)C(=O)Nc1n[nH]c(=S)s1` [5-(N-benzyloxycarbonyl(para-F)phenylalanyl-valylamino)-1,3,4-thiadiazole-2-thione], on stromelysin, the pKi is 6.81. Regarding `O=C(CNC(=O)[C@H](Cc1ccc(OCc2ccccc2)cc1)NC(=O)OCc1ccccc1)Nc1n[nH]c(=S)s1` [5-(N-benzyloxycarbonyl-(O-Benzyl)tyrosyl-glycylamino)-1,3,4-thiadiazole-2-thione], the pKi on 72 kD gelatinase was 9.42.

For `O=C(N[C@@H](Cc1ccc(OCc2ccccc2)cc1)C(=O)N[C@@H](Cc1ccccc1)C(=O)Nc1n[nH]c(=S)s1)OCc1ccccc1`, the pKi on 92 kD gelatinase is 9.82. For the molecule `O=C(N[C@H](C(=O)Nc1n[nH]c(=S)s1)c1ccccc1)[C@H](Cc1ccc(OCc2ccccc2)cc1)NC(=O)[C@@H]1CCCN1C(=O)OCc1ccccc1`, the pKi at 92 kD gelatinase was 9.12.

For the molecule `CC[C@H](C)[C@H](NC(=O)OCc1ccccc1)C(=O)N[C@H](C(=O)Nc1n[nH]c(=S)s1)C(C)C` [5-(N-Benzyloxycarbonyl-isoleucyl-valylamino)-1,3,4-thiadiazole-2-thione], the pKi on stromelysin was 6.03.
